In ChEMBL document CHEMBL1130305, “The design and synthesis of orally active short duration spiroindane growth hormone secretagogues” (Bioorg Med Chem Lett, 1997):
Values belong to the molecule of their own block, whether it stands above or below them.

Tests used:
[1] = half life was evaluated; assay type: ADME
Canis familiaris [2] = test: Compound was evaluated for the lowest dose where fourfold elevations over basal GH levels were observed in Beagle dog model after intravenous dose of 0.025 mpk and 0.125 mpk oral dose; 6/8; assay type: functional, Canis lupus familiaris
Canis familiaris [3] = species: Canis familiaris; test: Compound was evaluated for the lowest dose where fourfold elevations over basal GH levels were observed in Beagle dog model after peroral dose of 0.25 mpk; 8/8; assay type: functional, Canis lupus familiaris
Canis familiaris [4] = species: Canis familiaris; test: Compound was evaluated for the lowest dose where fourfold elevations over basal GH levels were observed in Beagle dog model after peroral dose of 0.5 mpk; 4/4; assay type: functional, Canis lupus familiaris
Canis familiaris [5] = species: Canis familiaris; test: Compound was evaluated for the lowest dose where fourfold elevations over basal GH levels were observed in Beagle dog model after peroral dose of 0.25 mpk; 2/5; assay type: functional, Canis lupus familiaris
Canis familiaris [6] = test: Compound was evaluated for percentage of growth hormone of day1 response, after chronic oral dosing at 0.5 mpk on day 4; assay type: functional, Canis lupus familiaris
Canis familiaris [7] = test: Compound was evaluated for percentage of increase in IGF-1 levels, after chronic oral dosing at 1.0 mpk on day 4; assay type: functional, Canis lupus familiaris
[8] = Compound was evaluated for its bioavailability in the dogs; assay type: ADME, organism-based, Canis lupus familiaris; details: dog, in vivo; read-out: Bioavailabiility
Canis familiaris [9] = test: Compound was evaluated for the lowest dose where fourfold elevations over basal GH levels were observed in Beagle dog model after intravenous dose of 0.025 mpk and 0.125 mpk oral dose; 1/2; assay type: functional, Canis lupus familiaris
[10] = Compound was evaluated for its bioavailability in the rats; assay type: ADME, organism-based; details: rat, in vivo; read-out: Bioavailabiility
Canis familiaris [11] = test: Compound was evaluated for percentage of growth hormone of day1 response, after chronic oral dosing at 1.0 mpk on day 4; assay type: functional, Canis lupus familiaris
Canis familiaris [12] = test: Compound was evaluated for percentage of increase in IGF-1 levels, after chronic oral dosing at 0.5 mpk on day 4; assay type: functional, Canis lupus familiaris
Canis familiaris [13] = species: Canis familiaris; test: Compound was evaluated for the lowest dose where fourfold elevations over basal GH levels were observed in Beagle dog model after peroral dose of 0.25 mpk; 5/8; assay type: functional, Canis lupus familiaris
[14] = Compound was evaluated for its absorption in the rats; assay type: ADME, organism-based; details: rat, in vivo; read-out: Absorption
Canis familiaris [15] = species: Canis familiaris; test: Compound was evaluated for the lowest dose where fourfold elevations over basal GH levels were observed in Beagle dog model after peroral dose of 0.25 mpk; 1/1; assay type: functional, Canis lupus familiaris
Canis familiaris [16] = species: Canis familiaris; test: Compound was evaluated for the lowest dose where fourfold elevations over basal GH levels were observed in Beagle dog model after peroral dose of 0.5 mpk; 1/2; assay type: functional, Canis lupus familiaris
Canis familiaris [17] = species: Canis familiaris; test: Compound was evaluated for the lowest dose where fourfold elevations over basal GH levels were observed in Beagle dog model after peroral dose of 0.5 mpk; 2/2; assay type: functional, Canis lupus familiaris

half-life [1]: 4.8 h
SMILES: CC(C)(N)C(=O)N[C@H](COCc1ccccc1)C(=O)N1CCC2(CC1)CN(S(C)(=O)=O)c1ccccc12.Cl
Responders (Canis familiaris [2]): 6
Responders (Canis familiaris [3]): 8

SMILES: CCOC(=O)C[C@@H]1CC2(CCN(C(=O)[C@@H](CCCc3ccccc3)NC(=O)C(C)(C)N)CC2)c2ccccc21.Cl
Responders (Canis familiaris [4]): 4
Responders (Canis familiaris [5]): 2

bioavailability [8]: 11.8%
bioavailability [10]: 4.5%
Fa [14]: > 50%
SMILES: CCOC(=O)[C@H]1CC2(CCN(C(=O)[C@@H](CCCc3ccccc3)NC(=O)C(C)(C)N)CC2)c2ccccc21.Cl
GH (Canis familiaris [6]): 65%
Increase (Canis familiaris [7]): 45%
Responders (Canis familiaris [9]): 1
GH (Canis familiaris [11]): 80%
Increase (Canis familiaris [12]): 65%
Responders (Canis familiaris [13]): 5

half-life [1]: 1.7 h
SMILES: CC(C)(N)C(=O)N[C@H](CCCc1ccccc1)C(=O)N1CCC2(CC1)C[C@H](C(=O)O)c1ccccc12.Cl
Responders (Canis familiaris [15]): 1
Responders (Canis familiaris [16]): 1

SMILES: CC(C)(N)C(=O)N[C@H](CCCc1ccccc1)C(=O)N1CCC2(CC1)C[C@@H](CC(=O)O)c1ccccc12.Cl
Responders (Canis familiaris [17]): 2
